Active and inactive are the calls of the source. No cut-off for these calls is given here.
Tests used:
[1] = Cytotoxicity against human L02 cells assessed as inhibition of cell growth incubated for 48 hrs by MTT assay; format: toxicity, cell-based
MDA-MB-231 = test: Antiproliferative activity against human MDA-MB-231 cells assessed as inhibition of cell growth incubated for 48 hrs by MTT assay; format: functional, cell-based; conditions: MDA-MB-231, 48 h
HeLa = test: Antiproliferative activity against human HeLa cells assessed as inhibition of cell growth incubated for 48 hrs by MTT assay; format: functional, cell-based
HT-29 = test: Antiproliferative activity against human HT-29 cells assessed as inhibition of cell growth incubated for 48 hrs by MTT assay; format: functional, cell-based; conditions: HT-29, 48 h
A549 = test: Antiproliferative activity against human A549 cells assessed as inhibition of cell growth incubated for 48 hrs by MTT assay; format: functional, cell-based; conditions: A549, 48 h
MCF7 [2] = test: Antiproliferative activity against human MCF7 cells assessed as inhibition of cell growth incubated for 48 hrs by MTT assay; format: functional, cell-based; conditions: MCF7, 48 h
MCF7 [3] = test: Inhibition of colony formation in human MCF7 cells at 10 nM incubated for 2 weeks in 5% CO2 at 37 degC by crystal violet staining based analysis; format: functional, cell-based
MCF7 [4] = test: Antitumor activity against human MCF7 cells xenografted in BALB/c mouse assessed as inhibition of tumor growth by measuring decrease in tumor weight at 10 mg/kg, ip administered every 3 days for 21 days; format: functional; conditions: MCF7, 504 h, time 21 day, read-out: TGI
Tubulin (Homo sapiens) = Tubulin (Homo sapiens) (UniProt P68371+Q9H4B7+P0DPH7+P68366+Q13509+Q71U36+P04350+Q3ZCM7+P07437+P68363+Q9BQE3+Q6PEY2+Q13885+Q9BVA1+Q9BUF5); test: Stabilization of tubulin in human MCF7 cells assessed as stable and fascicled microtubules at 25 nM incubated for 8 hrs by DAPI staining based immunofluorescence assay; format: cell-based

Row | IC50 (MDA-MB-231) | IC50 (HeLa) | IC50 (HT-29) | IC50 (A549) | IC50 (MCF7 [2]) | Activity (Tubulin (Homo sapiens)) | SMILES | IC50 at 48 h [1] | inhibition (MCF7 [3]) | inhibition in vivo at 10 mg/kg (MCF7 [4])
1 | 1290 nM | 2040 nM | 160 nM | 890 nM | 400 nM | – | COc1cccc(-c2cc(N)nn2C(=O)c2cc(OC)c(OC)c(OC)c2)c1 | 5680 nM | – | –
2 | 1570 nM | 560 nM | 1770 nM | 780 nM | 170 nM | – | COc1ccc(-c2cc(N)nn2C(=O)c2cc(OC)c(OC)c(OC)c2)cc1OC | 4100 nM | – | –
3 | – | 140 nM | 850 nM | 5180 nM | 110 nM | – | COc1cc(C(=O)n2nc(N)cc2-c2cccc(Cl)c2)cc(OC)c1OC | 1640 nM | – | –
4 | 3020 nM | 620 nM | 4610 nM | 2430 nM | 2080 nM | – | COc1cc(C(=O)n2nc(N)cc2-c2ccc(Br)cc2)cc(OC)c1OC | 2680 nM | – | –
5 | 3080 nM | 4850 nM | 1850 nM | 2530 nM | 1360 nM | – | COc1ccc(C(=O)n2nc(N)cc2-c2ccc(C)cc2)cc1OC | 5580 nM | – | –
6 | > 5000 nM | 2860 nM | 3910 nM | 1780 nM | 1540 nM | – | COc1ccc(C(=O)n2nc(N)cc2-c2ccc(Cl)cc2)cc1OC | 4660 nM | – | –
7 | > 5000 nM | > 5000 nM | > 5000 nM | > 5000 nM | > 5000 nM | – | COc1ccc(C(=O)n2nc(N)cc2-c2ccc(OC)c(OC)c2)cc1OC | > 10000 nM | – | –
8 | 840 nM | 650 nM | 400 nM | 350 nM | 310 nM | – | COc1ccc(-c2cc(N)nn2C(=O)c2cc(OC)c(OC)c(OC)c2)cc1 | > 10000 nM | – | –
9 | 1270 nM | 200 nM | 1060 nM | 770 nM | 80 nM | – | COc1cc(C(=O)n2nc(N)cc2-c2cccc(C)c2)cc(OC)c1OC | 2810 nM | – | –
10 | 540 nM | 440 nM | 280 nM | 2180 nM | 190 nM | – | COc1cc(C(=O)n2nc(N)cc2-c2cccc(Br)c2)cc(OC)c1OC | > 10000 nM | – | –
11 | 330 nM | 320 nM | 190 nM | 2890 nM | 120 nM | – | COc1cc(C(=O)n2nc(N)cc2-c2cccc(F)c2)cc(OC)c1OC | 4170 nM | – | –
12 | 2980 nM | 2550 nM | 4350 nM | 1360 nM | 2770 nM | – | COc1cc(C(=O)n2nc(N)cc2-c2ccc(Cl)cc2)cc(OC)c1OC | 2730 nM | – | –
13 | > 5000 nM | > 5000 nM | > 5000 nM | > 5000 nM | > 5000 nM | – | COc1ccc(C(=O)n2nc(N)cc2-c2cccc(Cl)c2)cc1OC | > 10000 nM | – | –
14 | 390 nM | 130 nM | 60 nM | 2530 nM | 150 nM | – | COc1cc(C(=O)n2nc(N)cc2-c2ccc(F)cc2)cc(OC)c1OC | 6240 nM | – | –

The remaining lines, values behind:

Row | SMILES | IC50 (MDA-MB-231) | IC50 (HeLa) | IC50 (HT-29) | IC50 (A549) | IC50 (MCF7 [2]) | Activity (Tubulin (Homo sapiens)) | IC50 at 48 h [1] | inhibition (MCF7 [3]) | inhibition in vivo at 10 mg/kg (MCF7 [4])
15 | COc1cccc(-c2cc(N)nn2C(=O)c2ccc3c(c2)OCO3)c1 | > 5000 nM | > 5000 nM | > 5000 nM | > 5000 nM | > 5000 nM | – | > 10000 nM | – | –
16 | Cc1ccc(-c2cc(N)nn2C(=O)c2ccc3c(c2)OCO3)cc1 | 170 nM | 40 nM | 1920 nM | 2150 nM | 120 nM | – | 3900 nM | – | –
17 | COc1ccc(C(=O)n2nc(N)cc2-c2ccc(F)cc2)cc1OC | > 5000 nM | > 5000 nM | > 5000 nM | > 5000 nM | > 5000 nM | – | > 10000 nM | – | –
18 | Nc1cc(-c2ccc(Cl)cc2)n(C(=O)c2ccc3c(c2)OCO3)n1 | 3870 nM | 2790 nM | > 5000 nM | 1680 nM | 750 nM | – | > 10000 nM | – | –
19 | COc1ccc(/C=C\c2cc(OC)c(OC)c(OC)c2)cc1O [COMBRETASTATIN A4] | 110 nM | 90 nM | 380 nM | 280 nM | – | – | 3200 nM | Active | –
20 | CC(=O)O[C@H]1C(=O)[C@@]2(C)[C@H]([C@H](OC(=O)c3ccccc3)[C@]3(O)C[C@H](OC(=O)[C@H](O)[C@@H](NC(=O)c4ccccc4)c4ccccc4)C(C)=C1C3(C)C)[C@]1(OC(C)=O)CO[C@@H]1C[C@@H]2O [PACLITAXEL] | 190 nM | 20 nM | 70 nM | – | 220 nM | Active | 1730 nM | Active | 73.5%
21 | COc1ccc(C(=O)n2nc(N)cc2-c2ccc(Br)cc2)cc1OC | 1290 nM | 1540 nM | 1080 nM | 2680 nM | 180 nM | – | 1120 nM | – | –
22 | COc1cccc(-c2cc(N)nn2C(=O)c2ccc(OC)c(OC)c2)c1 | 3090 nM | > 5000 nM | > 5000 nM | 2970 nM | 1200 nM | – | 2610 nM | – | –
23 | Nc1cc(-c2ccc(F)cc2)n(C(=O)c2ccc3c(c2)OCO3)n1 | 1970 nM | > 5000 nM | > 5000 nM | 3840 nM | 4440 nM | – | 6060 nM | – | –
24 | COc1ccc(-c2cc(N)nn2C(=O)c2ccc3c(c2)OCO3)cc1OC | 2160 nM | 4930 nM | 3570 nM | 2770 nM | 1190 nM | – | 2090 nM | – | –
